One may read the AUC(0-inf) as total exposure, with the tail of the curve extrapolated. The term Cmax denotes the highest concentration seen after dosing. One may read the Tmax as the time at which the peak concentration occurs.

The nature of data set [1]: Expected rise of serum 25-hydroxyvitamin D3 in a human, stated after the mini-pig result. It counts as in vivo. To be noted: single dose of 50 μg to a human (about 60 kg).
The nature of data set [2]: Single-dose pharmacokinetics of oral 25-hydroxyvitamin D3 formulations and IV injection in miniature swine (Example 1). It counts as in vivo, Yucatan miniature swine. The protocol:
Nine oral vitamin D formulations were prepared according to Table 2 below by homogeneously mixing the identified components in the amounts shown and filling the mixtures into hard gelatin capsules. Formulation 9 is an immediate-release formulation according to the prior art, wherein MIGLYOL 812N is the trade name for caprylic/capric triglycerides, available from CONDEA Chemie GmbH of Cranford, New Jersey, USA. […] Each group included five animals.
Blood was collected pre-dose, and at 0.5, 1, 2, 4, 6, 8, 12, 24, 48, 96, 168, 240, 336, 432, 504, 576, and 672 hours post dosing. Serum 25-hydroxyvitamin D3 levels were assayed by Liquid Chromatography/Mass Spectrometry/Mass Spectrometry (LC MS/MS).

A further data set is described as follows: clinical. The settings on record: human, in vivo, 450 ug. An excerpt: (§1) The modified release dosage formulation was the same as formulation 7 in Table 2 herein, with the following exceptions: (1) a vegetable-based capsule was used in place of a gelatin capsule; (2) hard paraffin content was reduced to 20%; and (3) liquid paraffin (light mineral oil) content was increased to 30%.
(§2) The bioavailability of the modified release dosage form was about 10% measured over the duration of the study (42 days).

The test system of the next data set is iPTH. As to the kind of experiment: Example 8: iPTH in Stage 3 or 4 CKD subjects. It counts as in vivo, human. The settings on record: single dose: IV 448 μg or 450 μg MR.
Text: as §1, §2

[3] abbreviates: Yucatan, minipig, serum, iv, 250 ug.

Consider `C=C1CC[C@H](O)C/C1=C/C=C1\CCC[C@]2(C)[C@@H]([C@H](C)CCCC(C)(C)O)CC[C@@H]12` [25-hydroxyvitamin D3], for which the “expected increase of serum 25-hydroxyvitamin D3” value in data set [1] is reported as “about 1.4 ng/ml”. In addition, the AUC(0-inf) in data set [2] (setting [3]) came out at 16600 ng·h/mL. Besides, the Cmax is 155 ng/mL in data set [2] (setting [3]) and 134 ± 19 ng/mL in “clinical”. For the same molecule, the values for the Tmax (in data set [2] (setting [3]); in the data set “clinical” (AVG); in “clinical” (Median)) were 1.5 h, 0.5 ± 0.6 h and 0.25 h, respectively. The AUC(0-t) in data set [2] (Yucatan, minipig, serum, iv, 250 ug, read-out: AUC (0-672 hr)) turned out to be 15000 ng·h/mL. In addition, the half-life is 132 h in data set [2] (Yucatan, minipig, serum, iv, 250 ug, read-out: T½ (converted)) and 1780 h in the data set “clinical”. For the same molecule, the BA in data set [2] (single 250 μg dose, Group 10 IV injection = 100.0) was 100.0%. The “tmax, AVG” value in the data set “clinical” came to 0.49 h. Moreover, the figures for the “effect on mean iPTH” value in the data set with iPTH and with iPTH (listed as IV calcifediol) were “minimal to no effect” and “no clinically meaningful effect”, respectively.

Source of the values: patent US12708629B2, “Methods and compositions for reducing parathyroid levels” (EIRGEN PHARMA LTD., priority 2010, dated 2026).
